In article PMC11787888, “Development and confirmation of humanized plasma and epithelial lining fluid exposures of meropenem, cefiderocol and tobramycin in a standardized neutropenic murine pneumonia model” (Journal of Antimicrobial Chemotherapy, 2024):
Read-outs that look alike come from different tables or passages of the source.

Assays:
[1] = Plasma pharmacokinetics in the COMBINE murine neutropenic pneumonia model; conditions: for k el: female, CD-1, mouse, plasma, sc; for K a (absorption rate constant into central compartment) / V plasma (volume of distribution in central compartment) / %fT > MIC for a MIC of 1 µg/mL / %fT > MIC for a MIC of 2 µg/mL / %fT > MIC for a MIC of 4 µg/mL / %fT > MIC for a MIC of 8 µg/mL / %fT > MIC for a MIC of 16 µg/mL / %fT > MIC for a MIC of 32 µg/mL / %fT > MIC for a MIC of 64 µg/mL / %fT > MIC for a MIC of 128 µg/mL: mouse plasma; for K a (absorption rate constant into central compartment) / V plasma (volume of distribution in central compartment): best-fit one-compartment model; for %fT > MIC for a MIC of 1 µg/mL / %fT > MIC for a MIC of 2 µg/mL / %fT > MIC for a MIC of 4 µg/mL / %fT > MIC for a MIC of 8 µg/mL / %fT > MIC for a MIC of 16 µg/mL / %fT > MIC for a MIC of 32 µg/mL / %fT > MIC for a MIC of 64 µg/mL / %fT > MIC for a MIC of 128 µg/mL: plasma HSR
Procedure: (§1) The model followed the COMBINE protocol with laboratory-specific detailed methods as follows.[6] Specific pathogen free CD-1, female mice 6–8 weeks old were acquired from Charles River Laboratories, Inc. (Raleigh, NC, USA). All animals were allowed to acclimatize for 72 h before any study procedures and were housed as groups of six at controlled room temperature in HEPA-filtered cages (Innovive, San Diego, CA, USA). Study rooms were maintained with diurnal cycles (12 h light/12 h dark) and food and water were provided ad libitum.
(§2) Neutropenia was achieved through 0.2 mL intraperitoneal (IP) administrations of cyclophosphamide 150 mg/kg on day minus 4 and an additional 100 mg/kg on day minus 1. A predictable degree of renal impairment was produced using 5 mg/kg of uranyl nitrate (Electron Microscopy Sciences, Hatfield, PA, USA) dissolved in sterile water administered as a 0.2 mL IP injection on day minus 3. […] Mice were anaesthetised using inhaled isoflurane, manually restrained upright and infected with 50 µL of bacterial suspension via the nares. Each bacterial inoculation suspension was used within 30 minutes of initial preparation.
(§3) The purpose of these studies was to establish HSRs in both plasma and ELF in the COMBINE murine neutropenic pneumonia model equivalent to clinical doses of meropenem (2 g every 8 h as 3 h infusion),[9] cefiderocol (2 g every 8 h as 3 h infusion)[10] and tobramycin (7 mg/kg as 0.5 h infusion)[11–13] based on unbound (free) exposures.
(§4) At predefined timepoints (shown in Figures 1–3), groups of six mice had blood sampled via retro-orbital bleeding (two time points, under anaesthesia with isoflurane 2%–3% v/v in 100% oxygen via inhalation) and/or cardiac puncture (one terminal time point). Proparacaine hydrochloride ophthalmic solution 0.5% was applied to the eye (1–2 drops) after blood sampling via retro-orbital bleeding. The volume of blood collected was 0.15 mL per sample via retro-orbital bleeding with subsequent fluid replacement using 0.2 mL normal saline given IP. Mice were euthanized by CO2 exposure before cardiac puncture. Following blood collection by cardiac puncture, but before cervical dislocation, bronchoalveolar lavage (BAL) fluid was collected from the mice at the same time points. A catheter was inserted into the trachea of the mice, and lungs were lavaged with four separate aliquots of 0.4 mL of normal saline. The BAL fluid was withdrawn immediately after injection and pooled for each animal. Pooled BAL was centrifuged for 10 min at 4°C and the supernatant was collected for analysis.
(§5) Drug concentrations in ELF were estimated by correcting the drug concentration in BAL fluid for the dilution with normal saline during lung lavage using the following formula: compoundELF = compoundBAL × (ureaplasma/ureaBAL), where compoundBAL is the measured drug concentration in the BAL fluid sample and ureaplasma and ureaBAL are the concentrations of urea in paired plasma and BAL fluid samples from each mouse, respectively. Owing to the lack of albumin in BAL fluid, total ELF concentrations were considered unbound.
(§6) Statistical outliers for each respective analyte were removed by the interquartile range method. Previously reported meropenem, cefiderocol and plazomicin (an aminoglycoside similar to tobramycin) plasma HSRs developed in alternative murine models were used as a baseline.[19],[20] Mathematical modifications were made to the baseline regimens as necessary to achieve translational exposures in the COMBINE model and repeat confirmatory PK studies were undertaken for both plasma and ELF.

[2] = ELF pharmacokinetics in the COMBINE murine neutropenic pneumonia model; conditions: for k el: female, CD-1, mouse, epithelial lining fluid (ELF), sc; for %fT > MIC for a MIC of 1 µg/mL / %fT > MIC for a MIC of 2 µg/mL / %fT > MIC for a MIC of 4 µg/mL / %fT > MIC for a MIC of 8 µg/mL / %fT > MIC for a MIC of 16 µg/mL / %fT > MIC for a MIC of 32 µg/mL / %fT > MIC for a MIC of 64 µg/mL / %fT > MIC for a MIC of 128 µg/mL / K a-ELF (absorption rate constant into ELF compartment) / V ELF (volume of distribution in ELF compartment): mouse ELF; for %fT > MIC for a MIC of 1 µg/mL / %fT > MIC for a MIC of 2 µg/mL / %fT > MIC for a MIC of 4 µg/mL / %fT > MIC for a MIC of 8 µg/mL / %fT > MIC for a MIC of 16 µg/mL / %fT > MIC for a MIC of 32 µg/mL / %fT > MIC for a MIC of 64 µg/mL / %fT > MIC for a MIC of 128 µg/mL: ELF HSR; for K a-ELF (absorption rate constant into ELF compartment) / V ELF (volume of distribution in ELF compartment): best-fit one-compartment model
Procedure: as §1, §2, §3, §4, §5, §6

[3] = design: method as in PMID 33371322, PMID 31724042, PMID 15107149; conditions: cited from earlier work
[4] = design: method as in PMID 17283197, PMID 28848004; conditions: murine plasma, previously determined; cited from earlier work
[5] = human plasma, 2 g every 8 h as a 3 h infusion; cited from earlier work
[6] = human ELF, 2 g every 8 h as a 3 h infusion; cited from earlier work

Row | SMILES | k el [1] [s⁻¹] | K a (absorption rate constant into central compartment) [1] [h⁻¹] | V plasma (volume of distribution in central compartment) [1] [L/kg] | %fT > MIC for a MIC of 1 µg/mL [1] [%] | %fT > MIC for a MIC of 2 µg/mL [1] [%] | %fT > MIC for a MIC of 4 µg/mL [1] [%] | %fT > MIC for a MIC of 8 µg/mL [1] [%] | %fT > MIC for a MIC of 16 µg/mL [1] [%] | %fT > MIC for a MIC of 32 µg/mL [1] [%] | %fT > MIC for a MIC of 64 µg/mL [1] [%] | %fT > MIC for a MIC of 128 µg/mL [1] [%] | k el [2] [s⁻¹] | %fT > MIC for a MIC of 1 µg/mL [2] [%] | %fT > MIC for a MIC of 2 µg/mL [2] [%] | %fT > MIC for a MIC of 4 µg/mL [2] [%] | %fT > MIC for a MIC of 8 µg/mL [2] [%] | %fT > MIC for a MIC of 16 µg/mL [2] [%] | %fT > MIC for a MIC of 32 µg/mL [2] [%] | %fT > MIC for a MIC of 64 µg/mL [2] [%] | %fT > MIC for a MIC of 128 µg/mL [2] [%] | also measured
1 | CC(C)(O/N=C(\C(=O)N[C@@H]1C(=O)N2C(C(=O)[O-])=C(C[N+]3(CCNC(=O)c4ccc(O)c(O)c4Cl)CCCC3)CS[C@H]12)c1csc(N)n1)C(=O)O [Cefiderocol, cefiderocol] | 0.000206 | 21.71 | 0.19 | 100 | 100 | 91 | 76 | 50 | 16 | 0 | 0 | 0.0002 | 100 | 100 | 85 | 50 | 14 | 0 | 0 | 0 | K a-ELF (absorption rate constant into ELF compartment) [2]: 1.94 h⁻¹; V ELF (volume of distribution in ELF compartment) [2]: 0.33 L/kg; Human plasma protein binding [3]: 58%; Murine protein binding [4]: 31.6%; %fT > MIC for a MIC of 1 µg/mL [5]: 100%; %fT > MIC for a MIC of 2 µg/mL [5]: 99%; %fT > MIC for a MIC of 4 µg/mL [5]: 98%; %fT > MIC for a MIC of 8 µg/mL [5]: 76%; %fT > MIC for a MIC of 16 µg/mL [5]: 48%; %fT > MIC for a MIC of 32 µg/mL [5]: 11%; %fT > MIC for a MIC of 64 µg/mL [5]: 0%; %fT > MIC for a MIC of 128 µg/mL [5]: 0%
2 | C[C@@H](O)[C@H]1C(=O)N2C(C(=O)O)=C(S[C@@H]3CN[C@H](C(=O)N(C)C)C3)[C@H](C)[C@H]12 [Meropenem, meropenem] | 0.00754 | 1.34 | 0.04 | 100 | 100 | 94 | 75 | 55 | 29 | 5 | 0 | 0.000694 | 78 | 62 | 43 | 14 | 3 | 0 | 0 | 0 | K a-ELF (absorption rate constant into ELF compartment) [2]: 7.00 h⁻¹; V ELF (volume of distribution in ELF compartment) [2]: 1.60 L/kg; %fT > MIC for a MIC of 1 µg/mL [5]: 100%; %fT > MIC for a MIC of 2 µg/mL [5]: 100%; %fT > MIC for a MIC of 4 µg/mL [5]: 100%; %fT > MIC for a MIC of 8 µg/mL [5]: 78%; %fT > MIC for a MIC of 16 µg/mL [5]: 50%; %fT > MIC for a MIC of 32 µg/mL [5]: 19%; %fT > MIC for a MIC of 64 µg/mL [5]: 0%; %fT > MIC for a MIC of 128 µg/mL [5]: 0%; %fT > MIC for a MIC of 1 µg/mL [6]: 90%; %fT > MIC for a MIC of 2 µg/mL [6]: 71%; %fT > MIC for a MIC of 4 µg/mL [6]: 50%; %fT > MIC for a MIC of 8 µg/mL [6]: 16%; %fT > MIC for a MIC of 16 µg/mL [6]: 0%; %fT > MIC for a MIC of 32 µg/mL [6]: 0%; %fT > MIC for a MIC of 64 µg/mL [6]: 0%; %fT > MIC for a MIC of 128 µg/mL [6]: 0%
